In patent publication US20050148534A1, “Small molecule compositions and methods for increasing drug efficiency using compositions thereof” (priority 2003, published 2005):
Read-outs that look alike come from different tables or passages of the source.

Legend:
[1] = molecular target: T1, deoxyguanosine kinase (dGK) (Homo sapiens, UniProt Q16854); conditions: substrate activity; literature (Johansson et al.); cited from earlier work
T1 sequence (Q16854 40-277): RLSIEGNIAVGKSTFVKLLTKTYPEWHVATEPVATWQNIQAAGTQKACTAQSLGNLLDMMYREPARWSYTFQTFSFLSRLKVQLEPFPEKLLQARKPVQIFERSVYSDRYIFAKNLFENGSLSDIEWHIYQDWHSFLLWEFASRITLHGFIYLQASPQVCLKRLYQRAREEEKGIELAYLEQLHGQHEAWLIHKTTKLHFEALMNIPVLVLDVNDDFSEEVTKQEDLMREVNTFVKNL

[2] = tested on: HT-29 colorectal carcinoma; assay: Cytotoxicity assay (monolayer), HT-29; assay type: cell-based; conditions: Homo sapiens
Procedure: (§1) Statistical Assoc., 81, 991-999, 1986.
(§2) Monolayer assays with tumor cell lines (MCF-7 breast carcinoma and HT-29 colorectal carcinoma from ATCC) were carried out in triplicate in 96-well plates with RPMI1640 medium containing 5% fetal bovine serum, 100 U/ml penicillin and 100 μg/ml streptomycin. Normal human foreskin fibroblasts (HFF #CC-2509) were from Cambrex and were cultured in FGM-2 medium. Exponentially growing cells (5,000 MCF-7 or HT-29; 1,500 HFF) were plated in 100 μl medium and incubated overnight (5% CO2, 37° C.). Compounds (20 pM to 20 μM final concentration, 6-8 doses) and vehicle (DMSO) controls were added and the incubation was continued for an additional 72 hours. Final cell density was determined by incubating cultures with 25 μl AlamarBlue reagent (BioSource, Camarillo, Calif.) for 4 hours, followed by determination of fluorescence at excitation of 544 nm and emission of 590 nm with a SpectroMax Gemini EM fluorescence plate reader (Molecular Devices, Sunnyvale, Calif.). EC50 values were generated from dose-response curves by a 4-parameter method using Softmax PRO software. Mean EC50s (±SD) represent the average of all tests carried out for all lots of a given compound. […] Statistical Assoc., 81, 991-999 (1986).

[3] = tested on: HT-29 colorectal carcinoma; assay: Cytotoxicity assay (soft agar), HT-29; conditions: Homo sapiens
[4] = tested on: MCF-7 breast carcinoma; assay: Cytotoxicity assay (soft agar), MCF-7; conditions: Homo sapiens
[5] = tested on: HUVEC; assay: Cytotoxicity assay (monolayer), HUVEC; assay type: cell-based; conditions: Homo sapiens, read-out: HUVEC (EC50 Ave) ML
[6] = tested on: tubulin; assay: Fluorescence-based microtubule polymerization assay (MPA); assay type: biochemical; conditions: mean percentage of paclitaxel or vinblastine activity; 0.75-10 micromolar
Excerpt: Drug-linker constructs may further be screened using functional assays predictive of biological activity. […] Tubulin assembly or inhibition thereof may be monitored by fluorescence using the CytoDYNAMIX Screen™ 10 kit available from Cytoskeleton (1830 S. Acoma St., Denver, Colo.). […] Emission is monitored at 405 nm with excitation at 360 nm. […] Tubulin assembly or inhibition may also be monitored by light scattering which is approximated by the apparent absorption at 350 nm. For paclitaxel drug conjugates BSA is employed to prevent aggregation and glycerol, which is a tubulin polymerization enhancer, is omitted from the kit to increase the signal to noise ratio.
The assay kit (#BK011) was purchased from Cytoskeleton (Denver, Colo.). The assays were carried out according to the manufacturer's instructions, except that 1 mg/ml BSA (Sigma #A3059) was included in all assays. […] Parent drugs and conjugates were tested at 0.75, 1.5, 3 and 10 micromolar final concentration and results represent a comparison of conjugate and parent drug curves obtained from the linear range of the dose responses.

[7] = Serum stability in RPMI1640 medium containing 10% fetal bovine serum; assay type: in vitro ADME
Procedure: The stability of conjugates was measured in RPMI1640 cell culture medium containing 10% fetal bovine serum. The serum-containing medium was pre-warmed at 37° C. for 3 min prior to addition of test articles. Test articles, prepared in DMSO as 5 mM stocks, were added to the cell culture media to a final concentration of […]. Aliquots ([…]) were withdrawn in triplicate at 0, 4, 8, 24 and 72 hours and combined with the same volume of ice-cold acetonitrile to terminate the reaction. The mixture was centrifuged at 2,000×g for 10 minutes. One part of the supernatant was mixed with four parts of deionized water to bring down the percentage of organic solvent. The diluted samples were then assayed by LC/MS for the test article. The natural log of the percent remaining was plotted versus time. A linear fit was used to determine the rate constant. The fit was truncated after the percent of remaining test article was less than 10%. The elimination half-lives associated with the disappearance of test articles were determined to compare their relative stability. The assays were carried out by Absorption Systems (Exton, Pa.).

[8] = molecular target: T2, Human thymidine kinase 1 (TK1) (Homo sapiens, UniProt P04183); assay: Thymidine kinase coupled (kinetic) ATP depletion assay; assay type: biochemical; conditions: initial velocity relative to thymidine; 100 μM conjugate
T2 construct: His tag (from pET28b(+)) (N); made in house; host or cells: E. coli BL21-codon plus
T2 sequence (P04183 1-234): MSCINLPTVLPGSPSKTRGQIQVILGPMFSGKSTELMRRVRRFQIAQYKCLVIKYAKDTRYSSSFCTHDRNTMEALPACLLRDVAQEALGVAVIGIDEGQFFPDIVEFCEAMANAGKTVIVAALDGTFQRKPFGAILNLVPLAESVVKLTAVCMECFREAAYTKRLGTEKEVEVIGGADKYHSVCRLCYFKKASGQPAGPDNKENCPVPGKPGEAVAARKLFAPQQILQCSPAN
Procedure: Thymidine kinase, viral thymidine kinase, TK-1 deoxycytidine kinase, and deoxyguanosine kinase activities are determined by subjecting a first end of a linker used in synthesizing linker-substrate constructs to a first test. The first test may involve observing ADP formation, an obligatory co-product of phospho group transfer from ATP which is catalyzed by the kinase to the C5′ hydroxyl group or its equivalent in the nucleoside or nucleoside analog. Formation of ADP is followed by a coupled enzyme assay well known in the art. ADP, formed from kinase phosphorylation, is used by pyruvate kinase to generate pyruvate from phosphoenolpyruvate which in turn is converted to lactate by lactate dehydrogenase. The lactate results in the consumption of NADH which is followed spectrophotometrically. The rate of nucleoside phosphorylation is then directly related to the rate of decrease in the observed NADH signal.
TK1 was amplified using PCR with forward primer 5′-[…]-3′ and reverse primer 5′-[…]-3′. The PCR product was digested with Nde I and Hind III. An N-terminal His-tagged TK1 construct, TK1/pET28b(+), was generated by subcloning TK1 into the Nde I and Hind III sites of prokaryotic expression vector pET28b (+) (Novagen, San Diego, Calif.). TK1 was expressed from TK1/pET28b(+) using E. coli strain BL21-codon plus (Stratagene, San Diego, Calif.) and purified by Ni column chromatography.
A coupled (kinetic) ATP depletion assay was developed to measure thymidine kinase activity. The reaction contained 100 mM Tris HCl, pH 7.5, 20 mM MgCl2, 100 mM KCl, 0.4 mM PEP, 0.2 mM NADH, Pyruvate Kinase (0.7 units)/Lactate Dehydrogenase (1.0 unit) (Sigma #PO294), 2.5-10 μg Thymidine Kinase, 100 μM thymidine or thymidine-drug conjugate in a volume of 75 μl. ATP (5 mM in 25 μl H2O) was added to initiate the reaction and the velocity of ATP depletion was monitored at 340 nm continuously for 15 minutes.

[9] = tested on: MCF-7 breast carcinoma; assay: Cytotoxicity assay (monolayer), MCF-7; assay type: cell-based; conditions: Homo sapiens, MCF7
Procedure: as §1, §2

[10] = tested on: Normal human foreskin fibroblasts (HFF); assay: Cytotoxicity assay (monolayer), HFF; assay type: cell-based; conditions: Fibroblast
Procedure: as §1, §2

[11] = molecular target: deoxycytidine kinase (dCK) (Homo sapiens, UniProt P27707); conditions: substrate activity; literature (Johansson et al.; Eriksson et al.; Wang et al.), source per Table 3; cited from earlier work
Sequence of deoxycytidine kinase (dCK) (P27707 whole entry, species assumed): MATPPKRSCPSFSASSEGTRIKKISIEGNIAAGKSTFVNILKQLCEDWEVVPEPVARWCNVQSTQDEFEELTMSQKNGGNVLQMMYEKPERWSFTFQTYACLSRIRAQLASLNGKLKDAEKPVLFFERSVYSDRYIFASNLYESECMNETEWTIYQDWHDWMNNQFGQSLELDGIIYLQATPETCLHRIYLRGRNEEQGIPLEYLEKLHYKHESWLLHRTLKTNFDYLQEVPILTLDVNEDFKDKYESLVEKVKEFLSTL

For Nc1ncnc2c1ncn2C1CC(O)C(CO)O1 (centres unmarked) [dado], the dGK [1] is listed as 100.
In the case of Nc1nc(Cl)nc2c1ncn2[C@H]1C[C@H](O)[C@@H](CO)O1 [X = O, R3 = OH, R5 = H, B = 2-Cl-Adenine], the dGK [1] is given as 180.
Molecule CC(=O)O[C@H]1C(=O)C2(C)[C@@H](OC(=O)NCCCCCCn3c(=O)c(C)cn([C@H]4CC(O)[C@@H](CO)O4)c3=O)CC3OC[C@]3(OC(C)=O)[C@H]2[C@H](OC(=O)c2ccccc2)[C@]2(O)C[C@H](OC(=O)[C@H](O)[C@@H](NC(=O)c3ccccc3)c3ccccc3)C(C)=C1C2(C)C (some centres unmarked) [PXL-7Ca-ALK(6)-N3-THY] has an EC50 ([2]; mean ± SD, read-out: HT-29 Monolayer EC50) of 258 ± 129 nM, an EC50 ([2]; monolayer, 72 hours, AlamarBlue, read-out: HT29 (EC50 Ave) ML) of 100 to 1000 nM and an EC50 ([3]; HT-29, read-out: HT29 (EC50 Ave) SA) of 100 to 1000 nM. For the same molecule, the EC50 ([3]; HT-29, read-out: HT-29 Soft Agar EC50) was 120 ± 4 nM, the EC50 ([4]; MCF7, read-out: MCF7 (EC50 Ave) SA) was < 100 nM and the EC50 ([4]; MCF7, read-out: MCF-7 Soft Agar EC50) was 40 ± 41 nM. The EC50 [5] was 100 to 1000 nM, the “Ave. MPA Act” value [6] was “B (B=60-100)” and the “Relative Percent Remaining at 0 hr” value ([7]; 37° C., medium with 10% fetal bovine serum, 0 hr) was 100%. The “Relative Percent Remaining at 4 hr” value ([7]; 37° C., medium with 10% fetal bovine serum, 4 hr) was 84%, the “Relative Percent Remaining at 8 hr” value ([7]; 37° C., medium with 10% fetal bovine serum, 8 hr) was 90% and the “Relative Percent Remaining at 24 hr” value ([7]; 37° C., medium with 10% fetal bovine serum, 24 hr) was 80%. For the same molecule, the “Relative Percent Remaining at 72 hr” value ([7]; 37° C., medium with 10% fetal bovine serum, 72 hr) was 38%, the half-life ([7]; bovine, serum) was 2.29 days and the “Ave. TK1 Kinase Act.” value [8] was “A (A<20)”. For the same molecule, the EC50 ([9]; mean ± SD, read-out: MCF-7 Monolayer EC50) was 120 ± 73 nM, the EC50 ([9]; monolayer, 72 hours, AlamarBlue, read-out: MCF7 (EC50 Ave) ML) was < 100 nM and the EC50 ([10]; mean ± SD, read-out: HFF Monolayer EC50) was 457 ± 310 nM. It also gave an EC50 ([10]; monolayer, 72 hours, AlamarBlue, read-out: HFF (EC50 Ave) ML) of 100 to 1000 nM.
For Nc1nc2c(ncn2C2CC(O)C(CO)C2)c(=O)[nH]1 (centres unmarked) [X = CH2, R3 = OH, R5 = H, B = Guanine], the dGK [1] is given as 70.
For Nc1nc2c(ncn2[C@@H]2O[C@H](CO)[C@@H](O)[C@@H]2O)c(=O)[nH]1 [AraG], the dGK [1] is given as 180 and the dCK [11] is given as 6.
For Nc1ncnc2c1ncn2[C@@H]1O[C@H](CO)[C@@H](O)[C@@H]1O [AraA], the dGK [1] is given as 15 and the dCK [11] is given as 50.
For CC[C@]1(O)C[C@@H]2CN(CCc3c([nH]c4ccccc34)[C@@](C(=O)OC)(c3cc4c(cc3OC)N(C)[C@H]3[C@@](O)(C(=O)NCCCn5c(=O)c(C)cn([C@H]6C[C@H](O)[C@@H](CO)O6)c5=O)[C@H](O)[C@]5(CC)C=CCN6CC[C@]43[C@@H]65)C2)C1 [VBL-3Am-ALK(3)-N3-THY], the “Ave. MPA Act” value [6] was “C (C>100)” and the “Ave. TK1 Kinase Act.” value [8] was “A (A<20)”.
For Nc1nc2c(ncn2[C@H]2C[C@H](O)[C@@H](CO)O2)c(=O)[nH]1 [dGuo], the dGK [1] is given as 50 and the dCK [11] is given as 300.
In the case of O=c1[nH]cnc2c1ncn2C1OC(CO)C(O)C1O (centres unmarked), the dGK [1] is listed as 290.
For Nc1ncnc2c1ccn2[C@H]1C[C@H](O)[C@@H](CO)O1, the dGK [1] is given as 100 and the dCK [11] is given as 50.
For CC[C@]1(O)C[C@@H]2CN(CCc3c([nH]c4ccccc34)[C@@](C(=O)OC)(c3cc4c(cc3OC)N(C)[C@H]3[C@@](O)(C(=O)NCCOCCn5c(=O)c(C)cn([C@H]6C[C@H](O)[C@@H](CO)O6)c5=O)[C@H](O)[C@]5(CC)C=CCN6CC[C@]43[C@@H]65)C2)C1 [VBL-3Am-PEG(5)-N3-THY], the “Ave. MPA Act” value [6] was “C (C>100)” and the “Ave. TK1 Kinase Act.” value [8] was “A (A<20)”.
In the case of CC[C@]1(O)C[C@@H]2CN(CCc3c([nH]c4ccccc34)[C@@](C(=O)OC)(c3cc4c(cc3OC)N(C)[C@H]3[C@@](O)(C(=O)NCCCCn5c(=O)c(C)cn([C@H]6C[C@H](O)[C@@H](CO)O6)c5=O)[C@H](O)[C@]5(CC)C=CCN6CC[C@]43[C@@H]65)C2)C1 [VBL-3Am-ALK(4)-N3-THY], the “Ave. MPA Act” value [6] is reported as “C (C>100)” and the “Ave. TK1 Kinase Act.” value [8] is reported as “B (B=20-40)”.
With CC[C@]1(O)C[C@@H]2CN(CCc3c([nH]c4ccccc34)[C@@](C(=O)OC)(c3cc4c(cc3OC)N(C)[C@H]3[C@@](O)(C(=O)NCCOCCOCCOCCn5c(=O)c(C)cn([C@H]6C[C@H](O)[C@@H](CO)O6)c5=O)[C@H](O)[C@]5(CC)C=CCN6CC[C@]43[C@@H]65)C2)C1 [VBL-3Am-PEG(11)-N3-THY] the “Ave. MPA Act” value [6] was “A (A<60)” and the “Ave. TK1 Kinase Act.” value [8] was “B (B=20-40)”.
For O=c1[nH]cnc2c1ncn2[C@H]1C[C@H](O)[C@@H](CO)O1 [dino], the dGK [1] is listed as 100 and the dCK [11] is listed as 120.
